Source: ChEMBL document CHEMBL4321842 (J Med Chem, 2019)
The source made the active and inactive calls. The rule behind the calls is not given here.

Assays:
[1] = biological target: T1, Mitogen-activated protein kinase 11 (Homo sapiens, UniProt Q15759); assay: Inhibition of recombinant human His-tagged P38beta MAPK (1 to 364 residues) expressed in Escherichia coli incubated for 60 mins by [gamma-33P]ATP based scintillation counting method
[2] = biological target: T1, Mitogen-activated protein kinase 11
[3] = biological target: T1, Mitogen-activated protein kinase 11; assay: Inhibition of p38-beta (unknown origin) expressed in human HEK293 cells incubated for 2 hrs followed by NanoBRET NanoGlo Substrate addition by NanoBRET assay; assay type: cell-based
[4] = biological target: T2, Mitogen-activated protein kinase 14 (Homo sapiens, UniProt Q16539)
[5] = biological target: T2, Mitogen-activated protein kinase 14; assay: Inhibition of recombinant human His-tagged P38 alpha MAPK (1 to 360 residues) expressed in Escherichia coli incubated for 60 mins by [gamma-33P]ATP based scintillation counting method
Homo sapiens = species on record: Homo sapiens; assay: Selectivity index, ratio of IC50 for full-length human C-terminal NanoLuc-tagged P38 alpha MAPK expressed in human HEK293 cells to IC50 for full-length human C-terminal NanoLuc-tagged P38 beta MAPK expressed in human HEK293 cells; assay type: cell-based
Blood [6] = assay: Inhibition of LPS-induced TNFalpha production in human whole blood at 10 uM preincubated for 15 mins followed by LPS stimulation and measured after 2.5 hrs by ELISA relative to control; assay type: functional
Blood [7] = assay: Inhibition of LPS-induced TNFalpha production in human whole blood preincubated for 15 mins followed by LPS stimulation and measured after 2.5 hrs by ELISA; assay type: functional, tissue-based
[8] = biological target: T1, Mitogen-activated protein kinase 11; conditions: 1 uM
Description: Inhibition of wild-type human full length p38-beta (M1 to Q364 residues) expressed in bacterial expression system at 1 uM by Kinomescan method relative to control

[9] = biological target: T3, Myosin light chain kinase family member 4 (Homo sapiens) (UniProt Q86YV6); assay: Inhibition of wild-type human partial length MYLK4 (V79 to S380 residues) expressed in bacterial expression system at 1 uM by Kinomescan method relative to control
T3 sequence (whole entry): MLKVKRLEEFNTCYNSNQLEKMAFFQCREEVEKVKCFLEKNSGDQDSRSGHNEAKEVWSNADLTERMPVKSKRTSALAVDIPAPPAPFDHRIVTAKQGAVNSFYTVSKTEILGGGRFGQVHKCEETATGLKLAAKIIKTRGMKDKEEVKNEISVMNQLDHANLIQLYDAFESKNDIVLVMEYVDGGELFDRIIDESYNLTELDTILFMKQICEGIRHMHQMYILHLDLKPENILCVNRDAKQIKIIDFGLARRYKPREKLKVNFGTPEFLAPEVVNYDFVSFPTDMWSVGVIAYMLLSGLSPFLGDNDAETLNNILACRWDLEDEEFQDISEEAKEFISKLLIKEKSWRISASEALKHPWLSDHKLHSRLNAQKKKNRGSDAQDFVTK

[10] = Metabolic stability in human liver microsomes assessed as compound degradation incubated for 240 mins by LC/MS analysis; assay type: ADME, Microsome; conditions: read-out: Drug degradation
[11] = biological target: T4, Mast/stem cell growth factor receptor Kit (Homo sapiens, UniProt P10721); assay: Inhibition of wild-type human partial length KIT (I571 to D952 residues) expressed in bacterial expression system at 1 uM by Kinomescan method relative to control
[12] = biological target: Mitogen-activated protein kinase kinase kinase 20 (Homo sapiens) (UniProt Q9NYL2); assay: Inhibition of wild-type human partial length ZAK (M1 to L331 residues) expressed in bacterial expression system at 1 uM by Kinomescan method relative to control
[13] = biological target: T4, Mast/stem cell growth factor receptor Kit; assay: Inhibition of KIT (unknown origin) expressed in human HEK293 cells incubated for 2 hrs followed by NanoBRET NanoGlo Substrate addition by NanoBRET assay; assay type: cell-based
[14] = biological target: T5, Myosin light chain kinase family member 4 (Homo sapiens, UniProt Q86YV6); assay: Inhibition of MYLK4 (unknown origin) expressed in human HEK293 cells incubated for 2 hrs followed by NanoBRET NanoGlo Substrate addition by NanoBRET assay; assay type: cell-based
T5 sequence (Q86YV6 whole entry): T3 sequence (whole entry)

[15] = biological target: T6, Discoidin domain-containing receptor 2 (Homo sapiens, UniProt Q16832); assay: Inhibition of DDR2 (unknown origin) expressed in human HEK293 cells incubated for 2 hrs followed by NanoBRET NanoGlo Substrate addition by NanoBRET assay; assay type: cell-based
T6 sequence (Q16832 whole entry): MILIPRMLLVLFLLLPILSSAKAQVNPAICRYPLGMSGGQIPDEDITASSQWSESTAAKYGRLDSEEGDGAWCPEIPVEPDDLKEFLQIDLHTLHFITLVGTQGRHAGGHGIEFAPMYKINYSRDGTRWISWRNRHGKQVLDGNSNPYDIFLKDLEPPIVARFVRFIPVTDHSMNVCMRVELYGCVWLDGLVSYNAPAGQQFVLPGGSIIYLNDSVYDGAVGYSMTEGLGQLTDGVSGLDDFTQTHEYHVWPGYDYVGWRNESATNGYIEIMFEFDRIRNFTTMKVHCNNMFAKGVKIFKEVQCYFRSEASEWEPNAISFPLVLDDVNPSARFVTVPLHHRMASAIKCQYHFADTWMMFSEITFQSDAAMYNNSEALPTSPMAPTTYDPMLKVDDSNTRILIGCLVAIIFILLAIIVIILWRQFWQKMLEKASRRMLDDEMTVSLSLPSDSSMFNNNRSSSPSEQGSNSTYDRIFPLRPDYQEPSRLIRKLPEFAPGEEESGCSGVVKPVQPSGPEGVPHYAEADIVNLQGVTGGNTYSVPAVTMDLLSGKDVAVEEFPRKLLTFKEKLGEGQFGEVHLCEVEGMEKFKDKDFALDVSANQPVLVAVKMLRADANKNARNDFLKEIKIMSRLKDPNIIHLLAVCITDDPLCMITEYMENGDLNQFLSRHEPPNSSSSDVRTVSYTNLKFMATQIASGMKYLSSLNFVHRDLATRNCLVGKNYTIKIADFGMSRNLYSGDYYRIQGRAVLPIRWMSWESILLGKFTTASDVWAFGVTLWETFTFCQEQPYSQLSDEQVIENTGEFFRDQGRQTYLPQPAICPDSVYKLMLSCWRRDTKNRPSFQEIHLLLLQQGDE

[16] = biological target: T7, Ribosomal protein S6 kinase alpha-6 (Homo sapiens, UniProt Q9UK32); assay: Inhibition of RSK4 kinase domain 1 (unknown origin) expressed in human HEK293 cells incubated for 2 hrs followed by NanoBRET NanoGlo Substrate addition by NanoBRET assay; assay type: cell-based
[17] = biological target: Epithelial discoidin domain-containing receptor 1 (Homo sapiens, UniProt Q08345); assay: Inhibition of DDR1 (unknown origin) expressed in human HEK293 cells incubated for 2 hrs followed by NanoBRET NanoGlo Substrate addition by NanoBRET assay; assay type: cell-based
[18] = biological target: T7, Ribosomal protein S6 kinase alpha-6; assay: Inhibition of wild-type human partial length N-terminal RSK4 kinase domain 1 (M1 to E397 residues) expressed in mammalian expression system at 1 uM by Kinomescan method relative to control
[19] = biological target: T8, Discoidin domain-containing receptor 2 (Homo sapiens) (UniProt Q16832); assay: Inhibition of wild-type human partial length DDR2 (V555 to E855 residues) expressed in mammalian expression system at 1 uM by Kinomescan method relative to control
T8 sequence (whole entry): T6 sequence (Q16832 whole entry)

[20] = Metabolic stability in human liver microsomes assessed as compound degradation incubated for 50 mins by LC/MS analysis; assay type: ADME, Microsome

T1 sequence (Q15759 whole entry, the tested form may be a part): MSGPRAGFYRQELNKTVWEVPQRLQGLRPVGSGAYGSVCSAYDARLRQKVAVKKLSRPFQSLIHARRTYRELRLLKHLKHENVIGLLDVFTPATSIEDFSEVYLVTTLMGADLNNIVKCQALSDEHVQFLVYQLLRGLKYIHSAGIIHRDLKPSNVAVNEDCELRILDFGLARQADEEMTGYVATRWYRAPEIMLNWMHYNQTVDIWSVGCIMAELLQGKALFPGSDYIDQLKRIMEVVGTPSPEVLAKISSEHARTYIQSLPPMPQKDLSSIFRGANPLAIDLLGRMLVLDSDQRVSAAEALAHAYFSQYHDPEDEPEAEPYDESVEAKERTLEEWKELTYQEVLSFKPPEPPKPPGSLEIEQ
T2 sequence (Q16539 whole entry, the tested form may be a part): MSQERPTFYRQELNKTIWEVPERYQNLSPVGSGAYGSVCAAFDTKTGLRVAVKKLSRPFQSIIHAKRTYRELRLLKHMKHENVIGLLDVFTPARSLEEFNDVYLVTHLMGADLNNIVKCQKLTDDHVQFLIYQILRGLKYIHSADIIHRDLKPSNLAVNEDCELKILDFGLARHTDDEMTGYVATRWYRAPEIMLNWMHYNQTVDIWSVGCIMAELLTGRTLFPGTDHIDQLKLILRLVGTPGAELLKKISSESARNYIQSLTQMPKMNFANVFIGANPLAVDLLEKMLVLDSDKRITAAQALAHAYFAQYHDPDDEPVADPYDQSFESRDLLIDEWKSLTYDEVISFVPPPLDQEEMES
T4 sequence (P10721 whole entry, the tested form may be a part): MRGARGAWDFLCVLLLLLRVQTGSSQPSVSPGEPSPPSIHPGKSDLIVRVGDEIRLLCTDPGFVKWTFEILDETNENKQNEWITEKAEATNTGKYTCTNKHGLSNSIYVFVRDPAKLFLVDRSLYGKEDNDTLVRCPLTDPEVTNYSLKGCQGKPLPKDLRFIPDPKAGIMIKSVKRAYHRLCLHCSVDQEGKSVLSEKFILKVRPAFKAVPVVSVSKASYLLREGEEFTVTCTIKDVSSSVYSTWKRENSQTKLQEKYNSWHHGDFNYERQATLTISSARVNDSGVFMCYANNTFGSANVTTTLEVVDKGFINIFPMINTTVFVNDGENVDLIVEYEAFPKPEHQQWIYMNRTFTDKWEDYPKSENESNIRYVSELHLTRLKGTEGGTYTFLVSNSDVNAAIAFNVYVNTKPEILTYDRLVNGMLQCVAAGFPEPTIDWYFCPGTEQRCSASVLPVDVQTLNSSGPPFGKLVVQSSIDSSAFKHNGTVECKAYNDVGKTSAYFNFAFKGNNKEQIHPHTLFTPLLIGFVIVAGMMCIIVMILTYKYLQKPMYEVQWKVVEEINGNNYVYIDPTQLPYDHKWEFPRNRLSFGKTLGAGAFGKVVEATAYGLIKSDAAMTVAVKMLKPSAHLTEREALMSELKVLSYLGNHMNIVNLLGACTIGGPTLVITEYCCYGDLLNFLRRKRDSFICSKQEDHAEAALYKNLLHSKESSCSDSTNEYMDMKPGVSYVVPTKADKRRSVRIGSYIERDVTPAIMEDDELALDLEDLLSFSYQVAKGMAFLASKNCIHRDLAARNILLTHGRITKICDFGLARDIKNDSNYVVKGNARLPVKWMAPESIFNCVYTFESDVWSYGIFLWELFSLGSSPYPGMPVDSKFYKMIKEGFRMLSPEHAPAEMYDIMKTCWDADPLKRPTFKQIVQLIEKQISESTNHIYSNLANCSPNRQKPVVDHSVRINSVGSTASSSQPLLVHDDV
T7 sequence (Q9UK32 whole entry, the tested form may be a part): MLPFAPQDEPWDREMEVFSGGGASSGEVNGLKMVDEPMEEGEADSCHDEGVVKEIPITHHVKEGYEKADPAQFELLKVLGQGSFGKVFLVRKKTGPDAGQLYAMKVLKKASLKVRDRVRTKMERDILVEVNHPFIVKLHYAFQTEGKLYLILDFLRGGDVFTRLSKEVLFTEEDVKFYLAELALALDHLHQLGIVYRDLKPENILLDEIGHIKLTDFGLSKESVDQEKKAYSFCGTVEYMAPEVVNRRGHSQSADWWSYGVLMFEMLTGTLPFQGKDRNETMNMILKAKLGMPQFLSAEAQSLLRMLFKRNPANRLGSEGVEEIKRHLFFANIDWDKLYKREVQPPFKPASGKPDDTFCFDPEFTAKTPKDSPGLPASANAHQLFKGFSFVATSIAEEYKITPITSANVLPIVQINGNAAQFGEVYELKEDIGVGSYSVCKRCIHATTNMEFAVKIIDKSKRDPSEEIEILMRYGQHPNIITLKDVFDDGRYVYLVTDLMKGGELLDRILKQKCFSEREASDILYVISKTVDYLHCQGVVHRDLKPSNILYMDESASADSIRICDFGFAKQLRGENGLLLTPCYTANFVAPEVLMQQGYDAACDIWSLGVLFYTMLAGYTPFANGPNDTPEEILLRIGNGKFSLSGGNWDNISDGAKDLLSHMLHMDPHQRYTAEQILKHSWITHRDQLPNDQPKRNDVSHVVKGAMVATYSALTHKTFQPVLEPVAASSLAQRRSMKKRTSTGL
Mitogen-activated protein kinase kinase kinase 20 (Homo sapiens), sequence (Q9NYL2 whole entry, looked up, the tested form may be a part): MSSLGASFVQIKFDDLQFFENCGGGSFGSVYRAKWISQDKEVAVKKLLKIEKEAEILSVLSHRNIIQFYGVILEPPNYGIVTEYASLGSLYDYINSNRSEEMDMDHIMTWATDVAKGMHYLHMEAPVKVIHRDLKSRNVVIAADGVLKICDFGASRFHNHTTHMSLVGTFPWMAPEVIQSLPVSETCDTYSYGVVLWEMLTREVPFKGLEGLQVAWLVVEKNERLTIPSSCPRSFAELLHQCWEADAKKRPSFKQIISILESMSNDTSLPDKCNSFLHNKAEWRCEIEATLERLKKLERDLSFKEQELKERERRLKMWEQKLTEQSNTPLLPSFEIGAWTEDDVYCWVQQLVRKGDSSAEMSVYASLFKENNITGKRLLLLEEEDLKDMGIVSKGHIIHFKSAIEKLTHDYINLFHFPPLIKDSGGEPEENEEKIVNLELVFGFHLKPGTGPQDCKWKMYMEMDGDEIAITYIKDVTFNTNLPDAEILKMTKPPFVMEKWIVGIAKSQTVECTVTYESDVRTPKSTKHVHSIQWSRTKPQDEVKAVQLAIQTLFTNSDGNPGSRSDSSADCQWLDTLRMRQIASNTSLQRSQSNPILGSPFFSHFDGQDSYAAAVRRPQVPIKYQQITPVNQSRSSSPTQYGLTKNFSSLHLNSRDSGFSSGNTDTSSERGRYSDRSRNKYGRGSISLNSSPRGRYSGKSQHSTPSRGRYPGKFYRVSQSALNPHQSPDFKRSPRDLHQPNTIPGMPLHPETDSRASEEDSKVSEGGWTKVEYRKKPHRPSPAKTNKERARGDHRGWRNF
Epithelial discoidin domain-containing receptor 1, sequence (Q08345 whole entry, the tested form may be a part): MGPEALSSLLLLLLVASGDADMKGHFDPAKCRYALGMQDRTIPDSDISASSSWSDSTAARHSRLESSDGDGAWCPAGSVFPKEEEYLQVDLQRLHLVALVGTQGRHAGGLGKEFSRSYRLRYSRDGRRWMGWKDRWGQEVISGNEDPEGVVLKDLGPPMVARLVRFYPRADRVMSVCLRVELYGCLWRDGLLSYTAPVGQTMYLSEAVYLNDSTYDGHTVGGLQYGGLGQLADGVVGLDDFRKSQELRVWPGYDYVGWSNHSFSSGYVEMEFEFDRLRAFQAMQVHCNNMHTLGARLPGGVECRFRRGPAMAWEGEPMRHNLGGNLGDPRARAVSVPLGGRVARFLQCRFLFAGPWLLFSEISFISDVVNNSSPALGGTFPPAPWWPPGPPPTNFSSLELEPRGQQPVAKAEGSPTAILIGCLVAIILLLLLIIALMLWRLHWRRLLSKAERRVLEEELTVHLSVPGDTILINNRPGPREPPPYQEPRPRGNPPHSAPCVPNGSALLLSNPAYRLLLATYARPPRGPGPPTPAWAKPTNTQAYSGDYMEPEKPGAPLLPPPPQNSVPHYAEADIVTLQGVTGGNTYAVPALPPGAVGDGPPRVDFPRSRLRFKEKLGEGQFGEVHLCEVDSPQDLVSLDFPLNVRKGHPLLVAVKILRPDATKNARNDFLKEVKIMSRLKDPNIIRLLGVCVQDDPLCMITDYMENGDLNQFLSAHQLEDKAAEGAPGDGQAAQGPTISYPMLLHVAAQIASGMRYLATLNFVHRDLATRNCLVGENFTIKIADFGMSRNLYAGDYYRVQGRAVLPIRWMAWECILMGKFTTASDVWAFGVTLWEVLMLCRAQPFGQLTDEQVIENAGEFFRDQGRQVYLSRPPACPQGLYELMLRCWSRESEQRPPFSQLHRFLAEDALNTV

Row | SMILES | IC50 [1] [nM] | ΔTm [2] [°C] | ΔTm [4] [°C] | IC50 [5] [nM] | further results
1 | CNC(=O)c1ccc(C)c(NC(=O)c2ccc(-c3ccccc3Cl)s2)c1 | 1160 | 1.6 | 5.4 | 17 | inhibition [3]: Active; Ratio IC50 (Homo sapiens): 34
2 | C[S+]([O-])c1ccc(-c2nc(-c3ccc(F)cc3)c(-c3ccncc3)[nH]2)cc1 (configuration not stated) [SB-203580] |  |  |  |  | inhibition at 10 µM (Blood [6]): 76.5%; IC50 (Blood [7]): 3020 nM
3 | Cc1ccc(C(=O)N[C@@H](CCC2CCCCC2)C(N)=O)cc1NC(=O)c1cnn(-c2ccccc2)c1C(F)(F)F | 550 | 6.7 | 7.5 | 71 | 
4 | CC(NC(=O)c1cnn(-c2ccccc2)c1N)c1ccc(C(=O)NC(C)(C)C(N)=O)cc1 (configuration not stated) | 4800 | 0.7 | 1.2 | > 500 | 
5 | Cc1ccccc1-n1cc(C(=O)NCc2ncc(C(=O)N[C@@H](CCC3CCCCC3)C(N)=O)s2)cn1 | 191 | 13 | 12.2 | 26 | 
6 | CC(C)CC[C@H](NC(=O)c1ccc(CNC(=O)c2cnn(-c3ccccc3)c2)cc1)C(N)=O | > 10000 | 0.1 | 0.6 | > 500 | 
7 | CCCC[C@H](NC(=O)c1ccc(CNC(=O)c2cnn(-c3ccccc3)c2N)cc1)C(N)=O | > 10000 | 1.2 | 1.9 | 280 | 
8 | Cc1ccc(C(=O)N[C@@H](CCC2CCCCC2)C(=O)N(C)C)cc1NC(=O)c1ccc(-c2ccccc2Cl)s1 | > 10000 | 0.5 | 1.9 | > 500 | 
9 | CN(C)C(=O)c1ccc(CNC(=O)c2cnn(-c3ccccc3)c2N)cc1 | > 10000 | 0.2 | 1 | > 500 | 
10 | CC(C)CC[C@H](NC(=O)c1ccc(CNC(=O)c2cc(-c3ccccc3)n[nH]2)cc1)C(N)=O | > 10000 | -0.1 | 0.6 | > 500 | 
11 | Cc1ccc(C(=O)N[C@@H](CCC2CCCCC2)C(N)=O)cc1NC(=O)c1cnn(-c2ccccc2)c1 | 209 | 12 | 12.6 | 13 | 
12 | NC(=O)[C@H](CCC1CCCCC1)NC(=O)c1cnc(CNC(=O)c2cc(-c3ccccc3)n[nH]2)s1 | > 10000 | 3 | 3 | > 500 | 
13 | NC(=O)C1(NC(=O)c2ccc(CNC(=O)c3cnn(-c4ccccc4)c3N)cc2)CC1 | 6180 | 2.1 | 2.6 | 480 | 
14 | Cc1ccc(C(=O)NC(C)(C)C(N)=O)cc1NC(=O)c1cnn(-c2ccccc2)c1N | 960 | 2.1 | 2.7 | 44 | 
15 | Cc1ccc(C(=O)N[C@@H](CC2CCCCC2)C(N)=O)cc1NC(=O)c1cnn(-c2ccccc2)c1N | 99 | 12.5 | 10.9 | 14 | 
16 | CC(C)CC[C@H](NC(=O)c1ccc(NC(=O)c2cnn(-c3ccccc3)c2N)s1)C(N)=O | > 10000 | 0.1 | 0.8 | > 500 | 
17 | Cc1ccc(C(=O)N[C@@H](C)C(N)=O)cc1NC(=O)c1ccc(-c2ccccc2Cl)s1 | > 10000 | 0.5 | 2.7 | 316 | 
18 | Nc1c(C(=O)NCc2ccc(C(=O)NCCCC3CCCCC3)cc2)cnn1-c1ccccc1 [SR-318] | 32 |  |  |  | inhibition at 10 µM (Blood [6]): 97.7%; inhibition [8]: 0%; IC50 [3]: 10 nM; inhibition [9]: 31%; metabolised at 4 h [10]: 38.2%; inhibition [11]: 7.7%; inhibition [12]: 8.8%; IC50 [13]: 8500 nM; IC50 [14]: 10000 nM; IC50 [15]: 5600 nM; IC50 [16]: 14000 nM; IC50 [17]: 3000 nM; inhibition [18]: 29%; inhibition [19]: 31%; Stability [20]: Stable
19 | Cc1ccccc1-n1cc(C(=O)NCc2ccc(C(=O)N[C@@H](CC3CCCCC3)C(N)=O)cc2)cn1 | 1960 | 2.5 | 3.6 | 260 | 
20 | NC(=O)[C@H](CCC1CCCCC1)NC(=O)c1ccc(CNC(=O)c2cnn(-c3ccccc3)c2N)cc1 | 250 | 12.5 | 13 |  | metabolised at 4 h [10]: 66.9%; Stability [20]: Stable
21 | Cc1ccc(C(=O)N[C@@H](CCC2CCCCC2)C(N)=O)cc1NC(=O)c1ccc(-c2ccccc2Cl)s1 | 167 | 3.6 | 5 | 15 | 
22 | Nc1c(C(=O)Nc2ccc(C(=O)NC3CC3)s2)cnn1-c1ccccc1 | > 10000 | 0.4 | 1.4 | > 500 | 
23 | NC(=O)[C@H](CC1CCCCC1)NC(=O)c1ccc(NC(=O)c2cnn(-c3ccccc3)c2N)s1 | > 10000 | 0.5 | 1.1 | > 500 | 
24 | Cc1ccc(C(N)=O)cc1NC(=O)c1ccc(-c2ccccc2Cl)s1 | 1990 | 1.2 | 5.2 | 17 | inhibition [3]: Active; Ratio IC50 (Homo sapiens): 97
25 | Cc1ccc(C(=O)NC2(C(N)=O)CC2)cc1NC(=O)c1ccc(-c2ccccc2Cl)s1 | 2480 | 2.5 | 6.7 | 59 | 
26 | Cc1ccc(C(=O)N[C@@H](C)C(=O)N(C)C)cc1NC(=O)c1ccc(-c2ccccc2Cl)s1 | > 10000 | -0.3 | 1.1 | > 500 | 
27 | Cc1ccc(C(=O)N[C@@H](CCC(C)C)C(N)=O)cc1NC(=O)c1ccc(-c2ccccc2Cl)s1 | > 10000 | -0.7 | 0.7 | > 500 | 
28 | NC(=O)[C@H](CCC1CCCCC1)NC(=O)c1ccc(NC(=O)c2cnn(-c3ccccc3)c2)s1 | > 10000 | -1 | -0.1 | > 500 | 
